{
  "source": "patent US8507504B2",
  "about": "“Process for producing bicycloaniline derivatives” (Merck Sharp & Dohme Corp., priority 2008, dated 2013)",
  "tested_on": "Human colon cancer cells WiDr",
  "assay": "Tumor growth inhibitory effect, WiDr xenograft in nude rats, combined with gemcitabine",
  "assay_type": "in vivo, F344/N Jcl-rnu nude rats",
  "conditions": "summary of Table 1",
  "protocol": "Pharmacological Test 2 (Tumor Growth Inhibitory Effect)\nHuman colon cancer cells WiDr (obtained from ATCC) were implanted into the subcutaneous area of the back of F344/N Jcl-rnu nude rats. 12 days after the implantation, 5 mg/kg of gemcitabine (Gemzar, from Eli Lily) was intravenously administered to them; and after 24 hours, a test compound suspended in a solvent (0.5% methyl cellulose) was orally administered thereto. This was repeated once a week for 3 weeks. The tumor volume (0.5×major diameter×(minor diameter)^2) was measured on days 0, 3, 6, 10, 13, 17, 20, 24 and 27 (the first gemcitabine administration is on day 0). The relative tumor volume was calculated, based on the tumor volume on day 0, as 1. The tumor growth rate (% T/C) was obtained according to the formulae mentioned below.\nIn case where the tumor volume change from day 0 in the test compound administration group is more than 0 (>0): % T/C=(tumor volume change in the test compound group on days 3, 6, 10, 13, 17, 20, 24 and 27/tumor volume change in the control group on days 3, 6, 10, 13, 17, 20, 24 and 27)×100.\nIn case where the tumor volume change from day 0 in the test compound administration group is less than 0 (<0): % T/C=(tumor volume change in the test compound group on days 3, 6, 10, 13, 17, 20, 24 and 27/tumor volume […] in the test compound group on day 0)×100. […]",
  "data": [
    {"molecule": "Nc1ccn([C@@H]2O[C@H](CO)[C@@H](O)C2(F)F)c(=O)n1", "note": "[Gemcitabine, gemcitabine]", "values": [
      {"measurement": "tumor growth rate (result in words)", "result": "reduced the tumor growth rate"}
    ]}
  ]
}
